Laboratory results reported in PubChem BioAssay (NCI).
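48-hour exposure; five concentrations; linearly interpolated endpoints. TGI denotes the concentration required for complete inhibition of growth.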

Tests used:
Experiment in all cases: DTP human tumour cell line panel, 48 h
786-0 renal = tested on: 786-0 renal
BT-549 breast = tested on: BT-549 breast
HCT-116 colon = tested on: HCT-116 colon
M14 melanoma = tested on: M14 melanoma
MCF7 breast = tested on: MCF7 breast
MDA-MB-435 = tested on: MDA-MB-435
TK-10 renal = tested on: TK-10 renal
U251 CNS = tested on: U251 CNS
KM12 colon = tested on: KM12 colon
MOLT-4 leukemia = tested on: MOLT-4 leukemia

| SMILES | TGI (786-0 renal) | TGI (BT-549 breast) | TGI (HCT-116 colon) | TGI (M14 melanoma) | TGI (MCF7 breast) | TGI (MDA-MB-435) | TGI (TK-10 renal) | TGI (U251 CNS) | TGI (KM12 colon) | TGI (MOLT-4 leukemia) |
| --- | --- | --- | --- | --- | --- | --- | --- | --- | --- | --- |
| Cc1nc2ccc(Cl)cc2c(-n2ccnc2)c1CCn1ccnc1 | 3.2 µM | 69.7 µM | > 100 µM | > 100 µM | > 100 µM | > 100 µM | > 100 µM | > 100 µM |  |  |
| [N-]=[N+]=CC(=O)C1CCCN1C(=O)c1ccccc1 (stereo not drawn) | > 10 µM | > 10 µM | > 10 µM | > 10 µM | > 10 µM | > 10 µM | > 10 µM | > 10 µM | > 10 µM | > 10 µM |
| Cc1c(N2CCOCC2)nc2ccc(Cl)cc2c1-c1ccccc1 | > 100 µM |  | > 100 µM | > 100 µM |  |  | > 100 µM | > 100 µM | > 100 µM | > 100 µM |
| O=C(c1ccco1)N(C(=O)N1CCCCC1)c1ccccc1 | > 100 µM | > 100 µM | > 100 µM | > 100 µM | > 100 µM | > 100 µM | > 100 µM | > 100 µM | > 100 µM | > 100 µM |
| CCOC(=O)CSc1nc(N)c2c(-c3ccccc3)c3c(nc2n1)CCCC3 | > 100 µM | > 100 µM | > 100 µM | > 100 µM | > 100 µM | > 100 µM | > 100 µM | > 100 µM | > 100 µM | > 100 µM |
| CC(C)C(Br)CCC1=CCC(Br)(Br)C1 (stereo not drawn) | 29.6 µM | 34.9 µM | 27.9 µM | 12.9 µM | 23.9 µM | 22.5 µM | 31.4 µM | 28.8 µM | 27.5 µM | > 100 µM |
| COc1cc2ccc3c4cc(OC)c(OC)cc4c[n+](C)c3c2cc1O | > 100 µM |  | > 100 µM | > 100 µM |  |  | > 100 µM | > 87.9 µM | > 100 µM | > 100 µM |
| CCc1c(O)cc(=O)oc1-c1ccc(OC)c(OC)c1 | > 100 µM | > 100 µM | > 100 µM | > 100 µM | > 100 µM | > 100 µM | > 100 µM | > 100 µM | > 100 µM | > 100 µM |
| CC(=O)Nc1nc(Cl)cc(NCC2(CO)CCC2)n1 | > 100 µM | > 100 µM | > 100 µM | > 100 µM | > 100 µM | > 100 µM |  | > 100 µM | > 100 µM | > 100 µM |
| Cc1ccc2cccc(-c3cccc4ccccc34)c2n1 | > 100 µM | > 100 µM | 95 µM | 55.6 µM |  | 7.58 µM | 36.2 µM | 29.9 µM | 63.4 µM | 40.6 µM |
| O=c1oc2ccccc2c(O)c1Cc1ccc(Cc2c(O)c3ccccc3oc2=O)cc1 |  | > 100 µM | > 100 µM | > 100 µM | > 100 µM | > 100 µM | > 100 µM | > 100 µM |  | > 100 µM |
